Two molecules from patent publication US8822526B2, “Synergistic pharmaceutical combination for the treatment of cancer” (Piramal Enterprises Limited, priority 2007, dated 2014) can be followed below.

Assay [1] concerns human non-small cell lung carcinoma H-460. Put plainly: Analysis of cell cycle distribution and flow cytometry (sub G1 apoptosis). The assay is classed as cell-based. The protocol: The human non-small cell lung carcinoma H-460 was seeded in 25 mm^3 tissue culture flasks. […] The control cells were left untreated for 96 hours or 120 hours. Both detached and adherent cells were harvested at different time points. The cells were washed twice with approximately 5 mL of PBS with centrifugation at 1000 rpm for 10 minutes. The cells were re-suspended in 500 μL of PBS and fixed in 500 μL ice-cold 70% ethanol. The fixed cells were incubated at room temperature for 30 minutes, spun at 1000 rpm for 10 minutes. To the cell pellet 1 mL of chilled 70% ethanol was added and the cell pellet was then kept in fridge till further analysis. Cells were washed twice with PBS to remove fixative and re-suspended in 250 μL PBS. To this 50 μL of propidium iodide (4 mg/mL in PBS) and 12.5 μL Rnase A (1 mg/mL) was added. After incubation at 37° C. for 30 minutes, cells were analyzed using flow cytometry.
A Becton Dickinson FACS Calibur flow cytometer was used in accordance with the manufacturer's recommendations. The argon ion laser set at 488 nm was used as an excitation source. Cells with DNA content between 2n and 4n were designated as being in G1, S and G2/M phases of the cell cycle, as defined by the level of red fluorescence. […] The number of cells in each cell cycle compartment was expressed as a percentage of the total number of cells present
About 1-2×10^6 cells were seeded in a tissue culture flask for the treatment groups. The assay protocol was as mentioned above in “analysis of cell cycle distribution and flow cytometry”. The cell cycle was divided in four parts, which are represented in the FIG. 1 as M1, M2, M3 and M4. M1 corresponds to the G1 phase, M2 to the S phase, M3 to the G2-M phase and M4 to the sub G1 phase, which represents the cells undergoing apoptosis.
About 1-2×10^6 cells were seeded in a tissue culture flask for the treatment groups. The assay protocol was as mentioned above in “analysis of cell cycle distribution and flow cytometry”. The cell cycle was divided in four parts, which are represented in the figure as M1, M2, M3 and M4. M1 corresponds to the G1 phase, M2 to the S phase, M3 to the G2-M phase and M4 to the sub G1 phase, which represents the cells undergoing apoptosis.

For assay [2] the test system is unchanged. Put plainly: Annexin V-FITC staining (detection of early apoptosis). The assay is classed as cell-based. As to conditions: doxorubicin 100 nM 24 hours; compound A 1200 nM 96 hours; combination doxorubicin 24 hours followed by compound A 96 hours. Here is the method:
Annexin V-FITC is a sensitive probe for identifying apoptotic cells. During early apoptosis the membrane phospholipid phosphotidyl serine (PS) is translocated from the inner to the outer leaflet of the plasma membrane, thereby exposing PS to the external cellular environment. Annexin V is a 35-36 kDa Calcium phospholipid binding protein that has a high affinity for PS and binds to cells with exposed PS. […] The human non-small cell lung carcinoma H-460 was seeded in 25 mm^3 tissue culture flasks. […] The control cells were left untreated for 120 hours. Medium containing floating cells were collected and pooled with the adherent cells after harvesting with trypsin at the different time points. The cells were washed twice with cold PBS with centrifugation at 1000 rpm for 10 minutes. The cell pellet was resuspended in 1× binding buffer (10 mm HEPES pH 7.4, 140 mM NaCl, 2.5 mM CaCl2) at a concentration of 1×10^6 cells/mL. 100 μl of the solution (1×10^5 cells) were stained with Annexin V-FITC and Propidium Iodide. The cells were incubated for 15 minutes at room temperature in the dark and the sample was analysed by flow cytometry. A Becton Dickinson FACS Calibur flow cytometer was used for these studies in accordance with the manufacturer's recommendations. The argon ion laser set at 488 nm was used as an excitation source. […] If the cells even after the termination of compound exposure continue to go into apoptosis, they would stain positive for annexin. The cells once in early apoptosis are committed to programmed cell death and at a point of no return.

The test system of the next assay is Cdk1. Put plainly: Western blot analysis. The assay is classed as cell-based, human. The settings on record: H-460; doxorubicin 100 nM 24 hours; compound A 1200 nM 96 hours; combination sequential; FIG. 6. Here is the method: (§1) At the end of the treatment period cells were lysed and protein content of the lysate was estimated using the Bradford reagent. 40 μg of protein was loaded on SDS-PAGE and transferred on PVDF membrane. The membranes were probed with p53, Bax, Bcl-2, cyclin D1, Cdk1 and actin antibodies. The primary antibody were detected with horseradish […] secondary antibody and subjected to west pico chemiluminescence reagents.
(§2) Equal amount of protein was loaded in the four lanes. The different samples loaded in the wells are described in the figure legend. […] This correlates with the increased apoptosis seen in the combination treatment in FACS analysis. The pro-apoptotic protein Bax is slightly up regulated with respect to control in all treatment samples. […] Cdk1-B1 is an initiator of mitosis. The deregulation of this enzyme leads to tumorigenesis.
(In general: A western blot detects proteins with antibodies after separation by electrophoresis.)

For the next assay, the system named is cyclin D1. As to the kind of experiment: Western blot analysis. Format: cell-based, human. As to conditions: H-460; doxorubicin 100 nM 24 hours; compound A 1200 nM 96 hours; combination sequential; FIG. 6. The protocol: as §1, §2
Another assay deals with COX-2. As to the kind of experiment: Western blot analysis using COX-2 antibody. Format: in vivo, human. The settings on record: H-460 tumor xenograft; FIG. 9. The source says:
FIG. 9 indicates western blot analysis using COX-2 antibody.
Therefore, NFκB mediated inhibition of COX-2 by the compound A could be involved in suppressing tumor growth and doxorubicin induced chemoresistance in human non-small cell lung carcinoma (H-460) tumor xenograft.

[3] abbreviates: FIG. 1: 200 nM doxorubicin alone (24 hours), 800 nM compound A alone (72 hours), combination 200 nM doxorubicin (24 hours) followed by 800 nM compound A (72 hours).
Setting [4] is: FIG. 2: 100 nM doxorubicin alone (24 hours), 1200 nM compound A alone (96 hours), combination 100 nM doxorubicin (24 hours) followed by 1200 nM compound A (96 hours).

In the case of `COc1cccc2c1C(=O)c1c(O)c3c(c(O)c1C2=O)C[C@@](O)(C(=O)CO)C[C@@H]3O[C@H]1C[C@H](N)[C@H](O)[C@H](C)O1` [Doxorubicin], in assay [1] (setting [3]), the “apoptosis (sub G1 phase)” value is listed as 10%. For the same molecule, the “apoptosis (sub G1 phase)” value in assay [1] (setting [4]) came out at 3%. Also, in assay [2], the “Annexin + ve (%) (cells in early apoptosis)” value was 30.4%; the “Annexin and PI + ve (%) (cells in early to late apoptosis)” value worked out at 8.6%; the “Live cells (%) (healthy cells)” value is on record as 60%; the “PI + ve (%) (dead cells)” value worked out at 1%. Also, the “Cdk1 levels (western blot)” value in the assay on Cdk1 is recorded as “significantly induces Cdk1 levels”. Besides, the “Cyclin D1 levels (western blot)” value with cyclin D1 was “slight reduction”. Besides, the “COX-2 levels (western blot)” value in the assay on COX-2 is recorded as “strongly induced COX-2”.
For the molecule `CN1CC[C@@H](c2c(O)cc(O)c3c(=O)cc(-c4ccccc4Cl)oc23)[C@@H]1CO.Cl` [Compound A, (+)-trans-2-(2-Chloro-phenyl)-5,7-dihydroxy-8-(2-hydroxymethyl-1-methyl-pyrrolidin-3-yl)-chromen-4-one hydrochloride], in assay [1] (setting [3]), the “apoptosis (sub G1 phase)” value came to 10%. Further, in assay [1] (setting [4]), the “apoptosis (sub G1 phase)” value is on record as 32%. In addition, in assay [2], the “Annexin + ve (%) (cells in early apoptosis)” value is 38.5%; the “Annexin and PI + ve (%) (cells in early to late apoptosis)” value is 8.2%; the “Live cells (%) (healthy cells)” value amounted to 53%; the “PI + ve (%) (dead cells)” value came to 0.3%. In addition, the “Cdk1 levels (western blot)” value in the assay with Cdk1 was “levels equal to control”. For the same molecule, in the assay on cyclin D1, the “Cyclin D1 levels (western blot)” value is “slight reduction”. In addition, the “COX-2 levels (western blot)” value in the assay on COX-2 is recorded as “low levels of COX-2”.
